Patent US20230117592A1 (SRI International, priority 2019, published 2023)
Several values for one entry are separate records, joined by “and”; a condition that tells them apart may be missing. Identical values can stand only once. Like-named read-outs stand apart in the source and are kept apart here.

Columns and labels:
5-LOX = biological target: T1, 5-LOX (Homo sapiens, UniProt P09917); experiment: 5-LOX fluorescent assay (in vitro lipoxygenase inhibition); type: biochemical
T1 sequence (P09917 1-674): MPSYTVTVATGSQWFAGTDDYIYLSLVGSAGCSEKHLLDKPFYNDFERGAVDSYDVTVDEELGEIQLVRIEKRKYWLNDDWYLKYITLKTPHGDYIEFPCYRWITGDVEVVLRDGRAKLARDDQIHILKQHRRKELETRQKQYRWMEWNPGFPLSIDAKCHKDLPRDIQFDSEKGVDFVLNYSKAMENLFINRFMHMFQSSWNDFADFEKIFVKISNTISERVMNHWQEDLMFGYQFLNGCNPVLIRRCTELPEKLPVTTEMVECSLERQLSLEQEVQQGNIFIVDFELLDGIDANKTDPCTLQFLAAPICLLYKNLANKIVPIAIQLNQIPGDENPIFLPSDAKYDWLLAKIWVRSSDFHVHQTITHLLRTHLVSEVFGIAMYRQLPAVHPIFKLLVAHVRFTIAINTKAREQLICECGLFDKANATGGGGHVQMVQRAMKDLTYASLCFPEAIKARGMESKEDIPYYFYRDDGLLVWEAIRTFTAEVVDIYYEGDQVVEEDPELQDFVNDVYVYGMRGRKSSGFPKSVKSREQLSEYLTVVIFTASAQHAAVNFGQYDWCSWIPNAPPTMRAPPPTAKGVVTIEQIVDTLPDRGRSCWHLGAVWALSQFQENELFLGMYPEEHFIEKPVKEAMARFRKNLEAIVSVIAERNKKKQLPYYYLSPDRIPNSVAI
Procedure: 5-LOX FI assay Fluorescent Assay
The enzyme assay (100 μL) contained 50 mM Tris, pH 7.5, 0.1 mM EDTA, 0.3 mM CaCl2, 20 μM AA, 100 μM ATP, 1 μM DHR123, and recombinant 5-LOX cell lysate (0.5 μL/100 μL). Inhibitors (dissolved in DMSO) were plated at 1 μL into 96-well assay microplates followed by a 40 μL addition of a solution containing 5-LOX enzyme. Enzyme was pre-incubated with compounds for 15 mins. The assay was initiated by the addition of a 40 μL substrate solution containing AA and ATP, and 20 μL addition of a solution containing DHR123. […] Percent inhibition was calculated for each compound dose for IC50 curve fitting using 4 Parameter Logistic Model or Sigmoidal Dose-Response Model.

12-LOX = biological target: T2, 12-LOX (Homo sapiens, UniProt P18054); experiment: 12-LOX fluorescent assay (in vitro lipoxygenase inhibition); type: biochemical
T2 sequence (P18054 1-663): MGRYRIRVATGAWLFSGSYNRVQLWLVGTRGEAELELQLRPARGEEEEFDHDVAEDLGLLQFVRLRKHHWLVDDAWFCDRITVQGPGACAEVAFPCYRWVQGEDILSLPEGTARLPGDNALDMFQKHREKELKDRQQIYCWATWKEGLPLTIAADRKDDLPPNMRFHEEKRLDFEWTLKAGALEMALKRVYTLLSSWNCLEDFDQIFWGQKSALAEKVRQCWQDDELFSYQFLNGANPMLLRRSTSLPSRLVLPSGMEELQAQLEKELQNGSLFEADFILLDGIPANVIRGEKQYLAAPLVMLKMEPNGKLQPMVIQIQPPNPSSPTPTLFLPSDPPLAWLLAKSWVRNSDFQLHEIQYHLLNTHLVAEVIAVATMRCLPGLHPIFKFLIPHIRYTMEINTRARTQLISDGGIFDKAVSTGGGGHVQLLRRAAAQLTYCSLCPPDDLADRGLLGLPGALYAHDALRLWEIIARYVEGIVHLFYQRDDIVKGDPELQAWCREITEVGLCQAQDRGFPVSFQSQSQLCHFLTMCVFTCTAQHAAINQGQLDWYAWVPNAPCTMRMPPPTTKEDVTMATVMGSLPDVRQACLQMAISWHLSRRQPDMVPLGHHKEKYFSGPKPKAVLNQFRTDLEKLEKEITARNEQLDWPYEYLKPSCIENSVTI
Procedure: 12-LOX/15-LOX Fluorescent Assay
The enzyme assay (100 ul) contained 50 mM Tris, pH 7.5, 0.05% Tween-20, 20 μM AA/LA, 1 μM DHR123, and 100 nM recombinant 12-LOX enzyme/50 nM recombinant 15-LOX enzyme. Inhibitors (dissolved in DMSO) were plated at 1 μL into 96-well assay microplates followed by a 40 μL addition of a solution containing 12-LOX/15-LOX enzyme. Enzyme was pre-incubated with compounds for 15 mins. The assay was initiated by the addition of a 40 μL substrate solution containing AA/LA, and 20μL addition of a solution containing DHR123. […] Percent inhibition was calculated for each compound dose for IC50 curve fitting using 4 Parameter Logistic Model or Sigmoidal Dose-Response Model.

[1] = recombinant 5-LOX cell lysate, 20 μM AA, DHR123 fluorescence, several values in a cell = repeat determinations, read-out: IC50 (μM) values for in vitro lipoxygenase inhibition, 5-LOX
[2] = 100 nM recombinant 12-LOX, 20 μM AA, DHR123 fluorescence, several values in a cell = repeat determinations, read-out: IC50 (μM) values for in vitro lipoxygenase inhibition, 12-LOX

With Fc1ccc(Nc2ccc(NCCn3cncn3)c(-c3ccccc3)c2)c(Cl)c1 [SS20308-0165-01, N^2-(2-(1H-1,2,4-triazol-1-yl)ethyl)-N^5-(2-chloro-4-fluorophenyl)biphenyl-2,5-diamine] the IC50 (5-LOX; [1]) was 0.03 µM and 0.23 µM and the IC50 (12-LOX) was 0.08 µM and 0.06 µM.
c1ccc(Nc2ccc(-c3cccc4c3NCC4)c(NCCn3cncn3)c2)cc1 [SS20308-0166-01, N^3-(2-(1H-1,2,4-triazol-1-yl)ethyl)-4-(indolin-7-yl)-N^1-phenylbenzene-1,3-diamine] gave an IC50 (5-LOX; [1]) of 0.14 µM and an IC50 (12-LOX; [2]) of 0.07 µM.
CN(C)CCCc1c(Nc2ccccc2)cccc1-c1cccc2c1NCC2 [SS20308-0172-01, 2-(3-(dimethylamino)propyl)-3-(indolin-7-yl)-N-phenylaniline] gave an IC50 (5-LOX; [1]) of 0.23 µM and an IC50 (12-LOX; [2]) of 0.36 µM.
In the case of c1ccc(Nc2cnc(-c3ccccc3)c(NCCn3cncn3)c2)cc1 [SS20308-0173-01, N^3-(2-(1H-1,2,4-triazol-1-yl)ethyl)-N^5,2-diphenylpyridine-3,5-diamine], the IC50 (5-LOX; [1]) is reported as 2.22 µM and the IC50 (12-LOX; [2]) is reported as 1.09 µM.
In the case of c1ccc(Nc2ccc(-c3ccccc3)c(NCCn3cncn3)n2)cc1 [SS20308-0175-01, N^2-(2-(1H-1,2,4-triazol-1-yl)ethyl)-N^6,3-diphenylpyridine-2,6-diamine], the IC50 (5-LOX; [1]) is reported as 0.32 µM and the IC50 (12-LOX; [2]) is reported as 0.26 µM.
With Cn1cncc1-c1ccc(Nc2ccccc2)cc1NCCn1cncn1 [SS20308-0177-01, N^3-(2-(1H-1,2,4-triazol-1-yl)ethyl)-4-(1-methyl-1H-imidazol-5-yl)-N^1-phenylbenzene-1,3-diamine] the IC50 (5-LOX; [1]) was 1.45 µM and the IC50 (12-LOX; [2]) was 0.72 µM.
With c1ccc(Nc2ccc(-c3ccccc3)c(NCCCn3cncn3)c2)cc1 [SS20308-0178-01, N^2-(3-(1H-1,2,4-triazol-1-yl)propyl)-N^4-phenylbiphenyl-2,4-diamine] the IC50 (5-LOX) was 150 nM and 210 nM (2×) and 90 nM and the IC50 (12-LOX) was 0.09 µM and 0.11 µM and 0.07 µM and 0.14 µM.
With Fc1ccc(Nc2ccc(-c3ccc(Cl)cc3)c(NCCn3cncn3)c2)cc1 [SS20308-0181-01, N^2-(2-(1H-1,2,4-triazol-1-yl)ethyl)-4′-chloro-N^4-(4-fluorophenyl)biphenyl-2,4-diamine] the IC50 (5-LOX; [1]) was 0.16 µM and the IC50 (12-LOX; [2]) was 0.16 µM.
With CN(C)CC1(CNc2cc(Nc3ccc(F)cc3)ccc2-c2ccccc2)COC1 [SS20308-0184-01, N^2-((3-((dimethylamino)methyl)oxetan-3-yl)methyl)-N^4-(4-fluorophenyl)biphenyl-2,4-diamine] the IC50 (5-LOX; [1]) was 0.16 µM and the IC50 (12-LOX; [2]) was 0.18 µM.
With c1ccc(Nc2ccc(-c3ccn[nH]3)c(NCCn3cncn3)c2)cc1 [SS20308-0189-01, N^3-(2-(1H-1,2,4-triazol-1-yl)ethyl)-N^1-phenyl-4-(1H-pyrazol-5-yl)benzene-1,3-diamine] the IC50 (5-LOX; [1]) was 0.17 µM and 0.28 µM and the IC50 (12-LOX; [2]) was 0.08 µM and 0.15 µM.
Molecule Cn1nccc1-c1ccc(Nc2ccccc2)cc1NCCn1cncn1 [SS20308-0190-01, N^3-(2-(1H-1,2,4-triazol-1-yl)ethyl)-4-(1-methyl-1H-pyrazol-5-yl)-N^1-phenylbenzene-1,3-diamine] has an IC50 (5-LOX; [1]) of 1.35 µM and an IC50 (12-LOX; [2]) of 0.93 µM.
Cn1cc(-c2ccc(Nc3ccccc3)cc2NCCn2cncn2)cn1 [SS20308-0191-01, N^3-(2-(1H-1,2,4-triazol-1-yl)ethyl)-4-(1-methyl-1H-pyrazol-4-yl)-N^1-phenylbenzene-1,3-diamine] gave an IC50 (5-LOX; [1]) of 4.18 µM and an IC50 (12-LOX) of 1.96 µM.
With Cc1noc(C)c1-c1ccc(Nc2ccccc2)cc1NCCn1cncn1 [SS20308-0192-01, N^3-(2-(1H-1,2,4-triazol-1-yl)ethyl)-4-(3,5-dimethylisoxazol-4-yl)-N^1-phenylbenzene-1,3-diamine] the IC50 (5-LOX; [1]) was 0.83 µM and the IC50 (12-LOX; [2]) was 0.59 µM.
c1ccc(Nc2ccc(-c3cccs3)c(NCCn3cncn3)c2)cc1 [SS20308-0193-01, N^3-(2-(1H-1,2,4-triazol-1-yl)ethyl)-N^1-phenyl-4-(thiophen-2-yl)benzene-1,3-diamine] was tested, and the IC50 (5-LOX; [1]) was 0.28 µM and the IC50 (12-LOX; [2]) was 0.14 µM.
N#Cc1ccc(-c2ccc(Nc3ccccc3)cc2NCCn2cncn2)s1 [SS20308-0194-01, 5-(2-(2-(1H-1,2,4-triazol-1-yl)ethylamino)-4-(phenylamino)phenyl)thiophene-2-carbonitrile] showed an IC50 (5-LOX; [1]) of 0.19 µM and an IC50 (12-LOX; [2]) of 0.13 µM.
c1ccc(Nc2ccc(C3CCCO3)c(NCCn3cncn3)c2)cc1 (centres unmarked) [SS20308-0195-01, N^3-(2-(1H-1,2,4-triazol-1-yl)ethyl)-N^1-phenyl-4-(tetrahydrofuran-2-yl)benzene-1,3-diamine] gave an IC50 (5-LOX; [1]) of 0.76 µM and an IC50 (12-LOX; [2]) of 0.36 µM.
Molecule CN(C)CCCc1ccc(Nc2ccccc2Cl)c(Nc2ccccc2Cl)c1 [SS20308-0198-01, N^1,N^2-bis(2-chlorophenyl)-4-(3-(dimethylamino)propyl)benzene-1,2-diamine] has an IC50 (5-LOX; [1]) of 0.25 µM and an IC50 (12-LOX; [2]) of 0.32 µM.
For CN(C)CCCc1cc(Nc2ccc(F)cc2Cl)c(F)cc1Nc1ccc(F)cc1Cl [SS20308-0199-01, N^1,N^4-bis(2-chloro-4-fluorophenyl)-2-(3-(dimethylamino)propyl)-5-fluorobenzene-1,4-diamine], the IC50 (5-LOX; [1]) was 0.68 µM and the IC50 (12-LOX; [2]) was 0.51 µM.
Molecule c1ccc(-c2ccc(NC3CCCCC3)cc2NCCn2cncn2)cc1 [SS20308-0200-01, N^2-(2-(1H-1,2,4-triazol-1-yl)ethyl)-N^4-cyclohexylbiphenyl-2,4-diamine] has an IC50 (5-LOX; [1]) of 0.4 µM and an IC50 (12-LOX; [2]) of 0.17 µM.
Fc1ccc(Nc2ccc3c(c2)N(CCn2cncn2)CC3)cc1 [SS20308-0201-01, 1-(2-(1H-1,2,4-triazol-1-yl)ethyl)-N-(4-fluorophenyl)indolin-6-amine] showed an IC50 (5-LOX; [1]) of 0.19 µM and an IC50 (12-LOX; [2]) of 0.05 µM.
In the case of Fc1ccc(CNc2ccc(NCCn3cncn3)c(-c3cccc4c3NCC4)c2)cc1 [SS20308-0211-01, N^1-(2-(1H-1,2,4-triazol-1-yl)ethyl)-N^4-(4-fluorobenzyl)-2-(indolin-7-yl)benzene-1,4-diamine], the IC50 (5-LOX; [1]) is reported as 0.08 µM and 0.07 µM and the IC50 (12-LOX; [2]) is reported as 0.04 µM and 0.03 µM.
For c1ccc(CNc2cnc(NCCn3cncn3)c(-c3ccccc3)c2)cc1 [SS20308-0212-01, N^2-(2-(1H-1,2,4-triazol-1-yl)ethyl)-N^5-benzyl-3-phenylpyridine-2,5-diamine], the IC50 (5-LOX; [1]) was 2.93 µM and the IC50 (12-LOX; [2]) was 1.61 µM.
c1ccc(CNc2cc(-c3ccccc3)c(NCCn3cncn3)cn2)cc1 [SS20308-0213-01, N^5-(2-(1H-1,2,4-triazol-1-yl)ethyl)-N^2-benzyl-4-phenylpyridine-2,5-diamine] gave an IC50 (5-LOX; [1]) of 0.61 µM and an IC50 (12-LOX; [2]) of 0.08 µM.
In the case of c1ccc(CNc2ccc(NCCn3cncn3)c(-c3ccccc3)n2)cc1 [SS20308-0214-01, N^5-(2-(1H-1,2,4-triazol-1-yl)ethyl)-N^2-benzyl-6-phenylpyridine-2,5-diamine], the IC50 (5-LOX; [1]) is reported as 0.16 µM and the IC50 (12-LOX; [2]) is reported as 0.05 µM.
c1ccc(CNc2ccc(NCCn3cncn3)c(-c3ccncc3)c2)cc1 [SS20308-0215-01, N^1-(2-(1H-1,2,4-triazol-1-yl)ethyl)-N^4-benzyl-2-(pyridin-4-yl)benzene-1,4-diamine] was tested, and the IC50 (5-LOX; [1]) was 0.07 µM and 0.09 µM and the IC50 (12-LOX; [2]) was 0.04 µM and 0.03 µM.
